Reference: US20070275936A1, “Formulations and Treatment Methods” (priority 1998, published 2007)

What was measured:
[1] = test system: Circulating Hematologic Elements; experiment: Human HIV clinical protocol: hematology; format: in vivo
Method: Otherwise untreated patients with CD4 counts of ≧200/μL and HIV-1 viral RNA between 5,000 and 1,000,000 copies/mL (branched-DNA, version 3.0, Bayer, Tarrytown, N.Y.) provided informed consent and were enrolled into a Phase I/II dose-escalation study of the safety and efficacy of intramuscular injections of BrEA. The protocol was conducted in South Africa. In the first cohort, four patients received an initial injection of 1 mL (50 mg), followed by a safety and pharmocokinetic study for seven days, and then received five daily injections of 1 mL (50 mg). The second cohort of 8 patients was randomized in a 1:2 ratio to receive either 50 mg (1 mL) or 100 mg (2 mL) on the same schedule. Patients were allowed at the discretion of the investigators to receive up to three additional courses each, repeated after 28 days of observation. The protocol was amended to introduce an improved formulation, and to extend the initial pharmacokinetic and safety period to 14 days, the observation period following the five daily doses to 35 days, and to allow up to 7 treatment courses. A third cohort of 24 patients was randomized in a 1:2:4 ratio to receive either 50 mg (0.5 mL), 100 mg (1 mL), or 200 mg (2 mL) of BrEA. The patients were all male, since initial safety studies are not permitted in females in South Africa. Within the group of 39 patients randomized, the ethnic demographic included was 18 Caucasian, 17 African, and 4 other. The average age was 34 (range 20-63), the average initial CD4/μL was 434 (range 176-1210), and the average viral load was 13,772 copies/mL (range 3,020-158,489). Patients underwent physical examinations and provided samples for chemistry, hematology, virology and immunology testing approximately every two weeks.
The CD4^+ cell frequency was determined using the FACSCount test. The absolute frequency of a CD8^+ cell subset was calculated in a similar fashion. The absolute white blood cell (WBC) count was determined using an automated cell counter (Advia 120, Bayer, Tarrytown, N.Y.). The nucleated cell region was defined using a forward versus orthogonal scatter plot. The absolute frequency per μL of CD3^− Natural Killer or Dendritic Cell subsets (F) was estimated by the equation: F=(proportion of nucleated cells)×(absolute WBC count per μL).
Statistical analysis of changes in surface phenotypes, hematological, and viral parameters were performed by calculating the area under the curve (AUC) of the percentage difference from baselines (phenotype), percentage difference from the mean of screen and baseline values (hematology), or log10 change from the mean of screen and baseline values (plasma viral RNA) for individual patients. AUC were calculated using the actual number of days between analysis visits for each patient. Because patients were on study for varying periods of time, this value was normalized to the time-averaged AUC by dividing by the number of days of observation. The Student's t-test was then used to analyze the difference from zero for the AUCs from all patients with data available for each parameter. A significant increase in the AUC for the entire 5-month period was interpreted as a nonrandom change in the given parameter.
For these reasons, the time-averaged AUC values for the 5-month period underestimate the magnitude of the individual responses. Maximal individual patient responses were calculated as the mean of the maximal percentage changes from baselines for individual patients at any analysis visit after dosing.
To investigate the kinetics of the responses for the entire population related to the time after dosing, the maximum analysis visit responses were calculated as the average of the maxima of the mean percentage changes from baselines for each analysis visit. Due to the altered BrEA administration interval for cohort 3, the analysis visits were aligned relative to the last dosing visit.

P. berghei = experiment: Survival of P. berghei infected mice given BrEA I.V. or S.C.; format: in vivo; conditions: cyclodextrin formulation, all control animals dead by day 10
Method: In a similar protocol, mice are inoculated with a solution containing 1×10^7 erythrocytes/mL by I.V. injection. Two hours later give drug is delivered by I.V. injection. BrEA or another formula 1 compound is given (0.2 mL I.V. or S.C.) once a day for 4 days. Tail snips are used to obtain blood after the study. Mice infected with P. berghei were used to obtain infected cells. Parasites are harvested from cardiac mouse blood, and uninfected mice are infected using 0.2 ml of blood with 14% parasitaemia per mouse I.V. Two hours later, the first dose of BrEA (100 mg/kg I.V. or S.C.) is delivered to the infected animals. The BrEA formulation was a sterile solution containing 15 mg/mL of BrEA in 45% hydroxypropyl-β-cyclodextrin and 0.9% saline. At 1, 2, 3 and 4 days after the infection of the animals, BrEA (100 mg/kg I.V. or S.C.) is delivered to the infected animals.

[2] = Oral administration of 14C BrEA to rats, preliminary pharmacokinetics; format: in vivo; conditions: 14C BrEA solubilized in different excipients
Method: Nonclinical studies were conducted using an oral and a subcutaneous formulation of BrEA. Rats were orally administered ^14C BrEA solubilized in different excipients to determine the levels of drug in blood and various tissues.

[3] = test system: HIV infected patients with chronic diarrhea; experiment: Treatment of chronic diarrhea in HIV infected patients; format: in vivo, human; conditions: two HIV infected patients, 60 mg s.c. daily for 10 days, during the period of dosing
Method: Two HIV infected patients with chronic diarrhea were dosed with BrEA as follows. A BrEA formulation (40 mg/mL BrEA in 25% v/v PEG 300, 12.5% v/v ethanol, 5% v/v benzyl benzoate, ˜57.5% v/v propylene glycol) was delivered subcutaneously. The patients received 60 mg of BrEA in 1.5 mL daily for 10 days. […] After the 10-day dosing period ended, diarrhea resumed. In other patients receiveing oral BrEA, diarrhea also went into remission.

In the case of C[C@]12CC[C@H](O)C[C@@H]1CC[C@@H]1[C@@H]2CC[C@]2(C)C(=O)[C@H](Br)C[C@@H]12 [BrEA, 16α-bromo-3β-hydroxy-5α-androstane-17-one], the “Eosinophils: Maximum Analysis Visit Responses Mean” value ([1]; analysis visit day 22) was 129% (22), the “WBC: Maximum Analysis Visit Responses Mean” value ([1]; analysis visit day 81) was 23% (81) and the “Basophils: Maximum Analysis Visit Responses Mean” value ([1]; analysis visit day 126) was 113% (126). The “Eosinophils: Maximum Individual Patient Responses Mean (range)” value ([1]; change from baseline, n=33) was 110% (−37 to 656%), the “Basophils: Maximum Individual Patient Responses Mean (range)” value ([1]; change from baseline, n=37) was 182% (−20 to 1,100%) and the “Monocytes: Maximum Individual Patient Responses Mean (range)” value ([1]; change from baseline, n=37) was 60% (−14 to 189%). The “Neutrophils: Maximum Individual Patient Responses Mean (range)” value ([1]; change from baseline, n=37) was 67% (−25 to 297%), the “Platelets: Maximum Individual Patient Responses Mean (range)” value ([1]; change from baseline, n=37) was 31% (0 to 122%) and the “WBC: Maximum Individual Patient Responses Mean (range)” value ([1]; change from baseline, n=37) was 36% (−1 to 159%). For the same compound, the “WBC: Time-averaged AUC Increase Mean ± SEM” value ([1]; i.m. BrEA, HIV patients, n=37, p=0.132) was 4.4 ± 3%, the “Eosinophils: Time-averaged AUC Increase Mean ± SEM” value ([1]; n=33, p=0.086) was 20 ± 11% and the “Platelets: Time-averaged AUC Increase Mean ± SEM” value ([1]; n=37, p<0.001) was 7 ± 2%. The “Basophils: Time-averaged AUC Increase Mean ± SEM” value ([1]; n=37, p=0.001) was 42 ± 12%, the “Neutrophils: Time-averaged AUC Increase Mean ± SEM” value ([1]; n=37, p=0.009) was 11 ± 4% and the “Monocytes: Time-averaged AUC Increase Mean ± SEM” value ([1]; n=37, p=0.029) was 10 ± 5%. The “survival of infected mice” value (P. berghei; BrEA 100 mg/kg I.V. daily) was “No deaths occurred in the group receiving I.V. BrEA at day 30”, the “survival of infected mice” value (P. berghei; BrEA 100 mg/kg S.C. daily) was “dead by Day 11” and the “excreted in the feces” value [2] was “at least 80%”. The “effect on chronic diarrhea” value [3] was “the diarrhea ceased”.
